Data published in patent publication US7803378B2, “Antigen imitating extracellular areas of membrane proteins of type III produced from intracellular pathogenic micro-organisms, derived conformational antibodies and the use thereof” (priority 2003, dated 2010).

Tests used:
[1] = system: extracellular domains of the LMP1 protein; test: Immunogenic potency of LMP1 antigens: serum antibodies by ELISA after immunization; type: in vivo, EBV; conditions: mice immunized with LMP1-derived peptide coupled to KLH or lipid
Method: (§1) The LMP1-derived peptides containing only one exogenous cystein (SEQ ID Nos 10, 11, 12, 15, 16) were individually coupled to activated KLH (Imject maleimide-activated KLH®, Perbio) according to the supplier's protocol. Mice (4 animals per group) were injected subcutaneously in the flank, with an emulsion of peptide (50 μg in 0.1 ml H20) and of complete Freund's adjuvant (0.1 ml). On days 21, 42 and 62 following the first injection (D0), the animals are given a boost injection, by the same route, with the same amount of antigen but in incomplete Freund's adjuvant. […]
(§2) Blood samples are taken, by retro-orbital puncture, from the immunized mice, and the sera are then recovered and frozen at −20° C. in 20-μl fractions. […] The reaction is stopped by adding 4N sulfuric acid, and the absorption at 492 nm is measured using an automatic microplate reader (Dynatech).
Antibodies directed against the extracellular domains of the EBV LMP1 protein were prepared by immunization of mice with the peptides SEQ ID Nos 10 and 11 coupled to KLH, or else with the peptide SEQ ID No. 13 coupled to cholesterol, as described in example 1. The kinetics of appearance of the serum antibodies directed against the extracellular domains of the LMP1 protein were analyzed by ELISA, as described in example 1.

[2] = system: extracellular domains of the LMP2A protein; test: Immunogenic potency of the LMP2A antigens in mice and rats (ELISA); type: in vivo, EBV; conditions: comparison of LMP2A peptides SEQ ID Nos 15, 16, 17
Method: as §1, §2
Antibodies directed against the extracellular domains of the LMP2A proteins were prepared by immunization of batches of 4 BALB/c mice or of batches of 3 LOU/M rats with the peptides SEQ ID Nos 15, 16 and 17 coupled to activated KLH as described in example 1. The response in terms of antibodies directed against the extracellular domains of the LMP2A protein was analyzed by ELISA, as described in example 1.

Row | Substance | Immunogenic Potency [1] | humoral response [2]
1 | SEQ ID No: 14: LMP1-(ED1 + ED2 + ED3) with linking residues between domains (MSDWTGGALCLWNLHGQALCLYLQQNWWT; Epstein Barr Virus) | +(IgM) | –
2 | TWRIEDPPFNSLCVDAVLQLSPL [SEQ ID No. 16] | – | best humoral response
